Assay results from patent publication US12637410B2, “Vesicular monoamine transporter-2 ligands and their use in the treatment of psychostimulant abuse” (priority 2016, dated 2026).
Read-outs that look alike come from different tables or passages of the source.

Tests used:
VMAT2 = molecular target: T1, VMAT2 (Rattus norvegicus, UniProt Q01827); assay: [3H]Dopamine ([3H]DA) uptake assay, vesicular preparation; format: biochemical
T1 construct: from tissue; host or cells: rat striatum, isolated synaptic vesicles
T1 sequence (Q01827 whole entry): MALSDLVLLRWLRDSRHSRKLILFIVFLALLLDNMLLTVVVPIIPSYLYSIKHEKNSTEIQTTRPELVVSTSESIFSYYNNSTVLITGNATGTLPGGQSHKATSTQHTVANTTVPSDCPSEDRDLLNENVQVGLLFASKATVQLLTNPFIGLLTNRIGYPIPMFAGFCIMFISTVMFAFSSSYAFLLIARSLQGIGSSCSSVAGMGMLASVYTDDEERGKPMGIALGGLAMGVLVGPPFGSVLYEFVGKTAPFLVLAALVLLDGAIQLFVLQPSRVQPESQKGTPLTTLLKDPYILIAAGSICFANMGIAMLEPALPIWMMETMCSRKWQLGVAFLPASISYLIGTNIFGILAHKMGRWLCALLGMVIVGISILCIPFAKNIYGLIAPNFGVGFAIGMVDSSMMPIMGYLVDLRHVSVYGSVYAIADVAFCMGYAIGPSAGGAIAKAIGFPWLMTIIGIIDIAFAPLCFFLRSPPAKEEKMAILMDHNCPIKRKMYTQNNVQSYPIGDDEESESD

hERG channel = molecular target: T2, hERG channel (Homo sapiens, UniProt Q12809); assay: [3H]Dofetilide binding assay, HEK-293 cell membrane preparation; details: hERG Binding: Mean Ki (nM)
T2 construct: purchased; host or cells: HEK-293 cells stably expressing hERG (membranes)
T2 sequence (Q12809 whole entry): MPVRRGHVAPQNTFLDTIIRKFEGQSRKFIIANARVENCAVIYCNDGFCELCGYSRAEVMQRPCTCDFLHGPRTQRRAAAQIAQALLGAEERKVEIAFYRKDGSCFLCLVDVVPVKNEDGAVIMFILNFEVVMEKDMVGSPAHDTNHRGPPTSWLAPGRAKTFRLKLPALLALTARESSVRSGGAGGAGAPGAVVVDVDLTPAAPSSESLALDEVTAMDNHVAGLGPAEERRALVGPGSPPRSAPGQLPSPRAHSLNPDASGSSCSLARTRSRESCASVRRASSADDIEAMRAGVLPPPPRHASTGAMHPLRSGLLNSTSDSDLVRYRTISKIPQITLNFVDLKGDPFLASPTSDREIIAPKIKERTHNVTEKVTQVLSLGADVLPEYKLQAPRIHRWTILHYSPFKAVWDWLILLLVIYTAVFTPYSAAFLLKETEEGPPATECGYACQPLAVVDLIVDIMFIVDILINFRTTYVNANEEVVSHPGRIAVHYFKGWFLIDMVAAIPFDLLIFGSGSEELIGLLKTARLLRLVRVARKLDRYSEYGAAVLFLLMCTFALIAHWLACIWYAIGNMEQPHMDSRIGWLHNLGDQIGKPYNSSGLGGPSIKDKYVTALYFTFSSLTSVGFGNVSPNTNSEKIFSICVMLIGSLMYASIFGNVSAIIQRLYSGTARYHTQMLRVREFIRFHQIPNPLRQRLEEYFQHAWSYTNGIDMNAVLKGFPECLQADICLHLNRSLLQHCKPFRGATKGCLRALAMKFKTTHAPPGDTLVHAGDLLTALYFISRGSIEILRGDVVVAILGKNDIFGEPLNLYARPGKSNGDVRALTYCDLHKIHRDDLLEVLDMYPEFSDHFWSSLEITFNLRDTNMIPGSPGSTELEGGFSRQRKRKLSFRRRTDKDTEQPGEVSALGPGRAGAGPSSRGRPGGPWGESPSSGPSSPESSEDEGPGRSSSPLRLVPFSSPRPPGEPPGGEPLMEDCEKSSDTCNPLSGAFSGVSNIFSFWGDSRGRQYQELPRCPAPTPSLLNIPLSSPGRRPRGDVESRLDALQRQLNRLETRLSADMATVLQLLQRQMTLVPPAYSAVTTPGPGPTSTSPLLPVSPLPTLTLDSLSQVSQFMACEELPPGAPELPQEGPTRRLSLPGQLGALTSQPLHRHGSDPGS
Procedure: Membranes were suspended in assay buffer (50 mM Tris, 10 mM KCl, 1 mM MgCl2, pH 7.4) prior to the experiment. […] Nonspecific binding was determined in the presence of amitriptyline (1 mM). Samples were incubated for 1 hr. at 24° C., followed by rapid filtration.

[1] = Microsomal assays, rat liver microsomes; details: for Microsomal stability assays: Species/Half-life (hr) Rat: rat liver microsomes; for CLint scaled at 0.08 µM: female, Sprague-Dawley, rat, pH 7.4
Procedure: Each plate holds triplicate samples of two controls (0.4 mM) and up to 14 compounds (0.08 mM) in rat and human liver microsomes. Aliquots of each well of the plate (175 μl of each well) were transferred from the master plate into 5 assay plates. […] NADPH regenerating system solution A (6.05 ml, Fisher Scientific, #NC9255727) was combined with NADPH regenerating system solution B (1.21 ml, Fisher Scientific, #NC9016235) in potassium phosphate buffer (15.8 ml, 0.1 M, pH 7.4, 37° C.). The resulting NADPH solution (43.8 μl) was added to each well of all the 96-well assay plates and mixed with pipette briefly making the final protein and compound concentrations respectively: 0.5 mg/ml, 0.08 μM (0.4 μM for controls). Plates were sealed, and all plates except the 0-hr plate were incubated at 37° C., shaken at a speed of 60 rpm. A single assay plate was tested at each time point: 0.5 hr, 1 hr, 2 hr, and 4 hr. At each time point, 437.5 μL of pre-cooled internal standard was added each well of the plate to quench the reaction. […] 120 μl supernatant was transferred to a 96-well plate, centrifuged again and analyzed by UPLC-MS (Waters Inc., Milford, MA). The compounds and internal standard were detected by selected ion recording (SIR).
The amount of material was measured as a ratio of peak area to the internal standard and graphed. Using the slope from the initial linear portion of this curve, the degradation rate constant is calculated using equation [1]. The rate constant was then used to calculate the compounds half-life in plasma using equation [2].

[2] = molecular target: dopamine transporter (DAT) (Rattus norvegicus, UniProt P23977); assay: [3H]DA uptake assay, synaptosomal preparation
dopamine transporter (DAT), sequence (P23977 whole entry): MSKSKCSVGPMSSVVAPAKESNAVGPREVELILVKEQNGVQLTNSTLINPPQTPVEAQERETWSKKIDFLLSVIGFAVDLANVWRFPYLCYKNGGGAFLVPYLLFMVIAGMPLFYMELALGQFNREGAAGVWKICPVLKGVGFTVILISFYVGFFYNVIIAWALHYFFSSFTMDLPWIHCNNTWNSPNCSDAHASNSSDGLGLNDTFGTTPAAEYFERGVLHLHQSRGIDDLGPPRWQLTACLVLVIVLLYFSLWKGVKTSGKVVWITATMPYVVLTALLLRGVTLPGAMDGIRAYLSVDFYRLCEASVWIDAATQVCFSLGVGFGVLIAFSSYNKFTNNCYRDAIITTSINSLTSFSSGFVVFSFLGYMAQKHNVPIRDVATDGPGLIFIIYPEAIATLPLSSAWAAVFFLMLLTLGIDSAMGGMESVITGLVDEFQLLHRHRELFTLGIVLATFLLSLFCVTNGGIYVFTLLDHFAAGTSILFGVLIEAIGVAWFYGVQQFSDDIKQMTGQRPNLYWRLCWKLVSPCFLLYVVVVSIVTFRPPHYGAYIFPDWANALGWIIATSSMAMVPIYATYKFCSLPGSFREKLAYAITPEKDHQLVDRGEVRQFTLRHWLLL
Procedure: [^3H]DA and [3H]5-HT uptake into striatal synaptosomes was determined to evaluate compound inhibition of the dopamine transporter (DAT) and the serotonin transporter (SERT), respectively. […] Assays were performed in duplicate in a total volume of 500 μL (for DAT assays) or 250 μL (for SERT assays). Aliquots of the synaptosomal suspension (25 μL for DAT, 50 μL for SERT) were added to tubes containing assay buffer and various concentrations of analog (1 nM-100 μM), and incubated at 34° C. for 5 min. Nonspecific uptake was determined in the presence of nomifensine (10 μM) for DAT assays or fluoxetine (10 μM) for SERT assays. […] Samples were placed on ice, and 50 μL of 0.1 μM [^3H]DA (for DAT assays) or 25 μL of 0.1 μM [^3H]5-HT (for SERT assays) was added to each tube, and incubated for 10 min at 34° C. Reactions were terminated by addition of 3 mL of ice-cold assay buffer and subsequent filtration and radioactivity retained by the filters was determined by liquid scintillation spectrometry (Tri-Carb 2100TR liquid scintillation analyzer; PerkinElmer Life and Analytical Sciences, Boston, MA).

[3] = [3H]dofetilide binding, HEK-293 membranes, mean of n>=3 unless N given
[4] = [3H]DA uptake, rat vesicular preparation, mean of n>=3 unless N given, read-out: VMAT2 (rat) Inhibition: Mean Ki
[5] = Table 4, mean, minimally n = 3, read-out: VMAT2 (rat) Inhibition: Mean Ki

Structure (SMILES) | Ki (VMAT2) [nM] | Ki (hERG channel; [3]) [nM] | further results
CC(Cc1ccccc1)ONCCc1ccccc1 (racemic) [Compound 295] | 41300 |  | 
CC(Cc1ccc(F)cc1)NCCCc1ccc2[nH]ccc2c1 (stereo not shown) [Compound 56] |  | 1260 | Microsomal stability assays: Species/Half-life (hr) Rat [1]: 0.1 h
CC(Cc1ccc(NC=O)cc1)NCCCc1ccc(F)cc1 (stereo not shown) [Compound 88] | 12 |  | 
CC(Cc1ccc(F)cc1)NCCCc1c[nH]c2ccccc12 (stereo not shown) [Compound 91] |  |  | Microsomal stability assays: Species/Half-life (hr) Rat [1]: 0.1 h
FCC(Cc1ccccc1)NCCCc1ccccc1 (stereo not shown) [Compound 98] |  |  | Microsomal stability assays: Species/Half-life (hr) Rat [1]: 0.1 h
FCC(Cc1ccccc1)NCCCc1ccc(F)cc1 (stereo not shown) [Compound 101] |  |  | Ki (VMAT2; [4]): 17 nM
CC(Cc1ccc([N+](=O)[O-])cc1)NCCCc1ccc(Br)cc1 (stereo not shown) [Compound 121] |  |  | Microsomal stability assays: Species/Half-life (hr) Rat [1]: 0.1 h
CC(Cc1ccc(F)cc1)NCCCc1ccccc1 (stereo not shown) [Compound 126] |  |  | Microsomal stability assays: Species/Half-life (hr) Rat [1]: 0.1 h
CC(C)C(Cc1ccc(F)cc1)NCCCc1ccccc1 (stereo not shown) [Compound 136] | 460 |  | 
CC(C)C(Cc1ccc(F)cc1)NCCCc1ccc(Br)cc1 (stereo not shown) [Compound 140] |  |  | Microsomal stability assays: Species/Half-life (hr) Rat [1]: 0.1 h
CC(Cc1ccc(F)cc1)NCCCc1ccc(N(C)C)cc1 (stereo not shown) [Compound 156] |  | 49000 | 
COc1ccc(CCCNC(C)Cc2ccncc2)cc1 (stereo not shown) [Compound 172] |  |  | Microsomal stability assays: Species/Half-life (hr) Rat [1]: 0.1 h
CC(Cc1ccc(F)cc1)NCCCc1ccc(Cl)cc1 (stereo not shown) [Compound 188] |  | 500 | 
CC(Cc1ccc(F)c(F)c1)NCCCc1ccc2nccnc2c1 (stereo not shown) [Compound 232] | 52 | 3300 | Ki (hERG channel; Table 4, mean, minimally n = 3): 2590 nM; CLint scaled at 0.08 µM [1]: 159 mL/min/kg; Ki [2]: 3580 nM
CC(Cc1ccc(F)c(F)c1)NCCCc1ccc2cn[nH]c2c1 (stereo not shown) [Compound 233] | 33 | 483 | 
CC(Cc1ccc(F)c(F)c1)NCCCc1ccc2[nH]ncc2c1 (stereo not shown) [Compound 234] | 54 | 1020 | Ki (hERG channel; Table 4, mean, minimally n = 3): 1020 nM; CLint scaled at 0.08 µM [1]: 114 mL/min/kg; Ki [2]: 703 nM
CC(Cc1ccc(F)c(F)c1)NCCCc1cccc(S(N)(=O)=O)c1 (stereo not shown) [Compound 236] | 99 | 2010 | 
CC(Cc1ccc(F)c(F)c1)NCCCc1ccccc1N (stereo not shown) [Compound 238] | 220 | 3250 | 
CC(Cc1ccc(Br)cc1)NCCCc1ccc(N)cc1 (stereo not shown) [Compound 240] | 48 | 1130 | 
CC(Cc1ccc(F)cc1)NCCCc1cccc(N)c1 (stereo not shown) [Compound 241] | 106 | 6390 | 
CC(Cc1ccc(F)cc1)NCCCc1ccc(Cl)c(N)c1 (stereo not shown) [Compound 242] | 38 | 1440 | 
CC(Cc1ccc(F)c(F)c1)NCCCc1ccc(-c2ccnn2C)cc1 (stereo not shown) [Compound 244] | 118 | 1030 | 
CC(Cc1ccc(F)c(F)c1)NCCCc1ccccc1-c1ccnn1C (stereo not shown) [Compound 245] | 136 | 2240 | 
CC(Cc1c[nH]c2ccccc12)NCCCc1ccc(F)cc1 (stereo not shown) [Compound 246] | 66 | 731 | 

Structure (SMILES) | Ki (VMAT2) [nM] | Ki (hERG channel; [3]) [nM] | further results
CC(Cc1ccc(F)c(F)c1)NCCCc1ccnc(C(F)(F)F)c1 (stereo not shown) [Compound 247] | 349 |  | 
CC(Cc1ccc(F)c(F)c1)NCCCc1cccc(C(F)(F)F)c1 (stereo not shown) [Compound 250] | 39 | 4100 | 
CC(Cc1ccc(F)cc1)NCCCc1ccc([N+](=O)[O-])c(C(F)(F)F)c1 (stereo not shown) [Compound 251] | 55 | 535 | 
CC(Cc1ccc(F)c(F)c1)NCCCc1ccc2ncsc2c1 (stereo not shown) [Compound 252] | 67 | 1580 | 
CC(Cc1ccc(F)c(F)c1)NCCCc1ccc2c(c1)C(=O)OC2 (stereo not shown) [Compound 253] | 268 |  | 
CC(Cc1ccc(F)c(F)c1)NCCCc1ccc2c(c1)[nH]c(=O)n2C (stereo not shown) [Compound 254] | 187 |  | 
CC(Cc1ccc(F)c(F)c1)NCCCc1cccc2ncoc12 (stereo not shown) [Compound 255] | 54 | 3370 | 
CC(Cc1ccc(F)c(F)c1)NCCCc1ccc2ncoc2c1 (stereo not shown) [Compound 256] | 50 | 4880 | 
CC(Cc1ccc(F)c(F)c1)NCCCc1ccc(C(=O)O)cc1 (stereo not shown) [Compound 257] | 6480 | > 34700 | 
CC(Cc1ccc(F)c(F)c1)NCCCc1ccc(OC(C)C)cc1 (stereo not shown) [Compound 259] | 104 | 818 | 
CSc1ccc(CCCNC(C)Cc2ccc(F)c(F)c2)cc1 (stereo not shown) [Compound 261] | 32 | 316 | 
CC(Cc1ccc(F)c(F)c1)NCCCc1ccc(C(C)(C)C)cc1 (stereo not shown) [Compound 264] | 209 | 2190 | 
CC(Cc1ccc(F)c(F)c1)NCCCc1cccc(N)c1 (stereo not shown) [Compound 265] | 202 | 5560 | 
CC(Cc1ccc(F)c(F)c1)NCCCc1cccc(N(C)C)c1 (stereo not shown) [Compound 266] | 171 | 2460 | 
CC(Cc1ccc(F)c(F)c1)NCCCc1cccc(Cl)c1 (stereo not shown) [Compound 267] | 19 | 1000 | 
CC(Cc1ccc(F)c(F)c1)NCCCc1ccccc1Cl (stereo not shown) [Compound 268] | 28 | 233 | 
CC(Cc1ccc(F)c(F)c1)NCCCc1ccc(Cl)cc1Cl (stereo not shown) [Compound 269] | 61 | 279 | 
CC(Cc1ccc(F)c(F)c1)NCCCc1cc(Cl)cc(Cl)c1 (stereo not shown) [Compound 270] | 38 | 1500 | 
CC(Cc1ccc(F)c(F)c1)NCCCc1cccc(Cl)c1Cl (stereo not shown) [Compound 271] | 42 | 462 | 
CC(Cc1ccc(F)c(F)c1)NCCCc1ccc(Cl)c(Cl)c1 (stereo not shown) [Compound 272] | 57 | 462 | 
CC(Cc1ccc(F)c(F)c1)NCCCc1ccc(Cl)c(C(F)(F)F)c1 (stereo not shown) [Compound 273] | 538 | 1220 | 
CC(Cc1ccc(F)c(F)c1)NCCCc1ccc(NS(C)(=O)=O)cc1 (stereo not shown) [Compound 274] | 45 | 220 | 
CC(Cc1ccc(F)cc1)NCCCc1ccc(NS(C)(=O)=O)cc1 (stereo not shown) [Compound 275] | 53 | 308 | 
CC(=O)Nc1ccc(CCCNC(C)Cc2ccc(Br)cc2)cc1 (stereo not shown) [Compound 276] | 24 | 3430 | 

Structure (SMILES) | Ki (VMAT2) [nM] | Ki (hERG channel; [3]) [nM] | further results
CC(Cc1c[nH]c2ccccc12)NCCCc1ccc(F)cc1 (stereo not shown) [Compound 277] |  | 732 | Ki (VMAT2; read-out: VMAT2 (rat) Inhibition: Mean Ki, [3H]DA uptake, rat vesicular preparation, mean of n>=3 unless N given): 66 nM
CC(Cc1ccc(F)cc1)NCCCc1cccnc1 (stereo not shown) [Compound 278] | 98 | 3980 | 
CC(Cc1ccc(F)cc1)NCCCc1ccccn1 (stereo not shown) [Compound 279] | 200 | 2400 | 
CC(Cc1ccc(F)c(F)c1)NCCCc1cccc(-c2ccnn2C)c1 (stereo not shown) [Compound 281] | 51 | 592 | 
CC(Cc1ccc(F)c(F)c1)NCCCc1ccccc1-c1cccnc1 (stereo not shown) [Compound 282] | 88 | 364 | 
CC(Cc1ccc(F)c(F)c1)NCCCc1cccc(-c2cccnc2)c1 (stereo not shown) [Compound 283] | 41 | 182 | 
O=C(O)C(Cc1ccc(F)cc1)NCCCc1ccc(Br)cc1 (stereo not shown) [Compound 286] | 3130 |  | 
NC(Cc1cn(Cc2ccccc2)cn1)C(=O)OCC(Cc1ccc(F)cc1)NCCCc1ccc(Br)cc1 (stereo not shown) [Compound 287] | 533 |  | 
CC(Cc1ccccc1)N(CCCc1ccc(O)cc1)C(=O)OC(C)(C)C (stereo not shown) [Compound 288] | > 100000 |  | 
CC(Cc1ccccc1)N(CCCc1ccc([N+](=O)[O-])cc1)C(=O)OCc1ccccc1 (stereo not shown) [Compound 289] | 2970 |  | 
CC(Cc1ccccc1)N(CCCc1ccc(I)cc1)C(=O)OCc1ccccc1 (stereo not shown) [Compound 290] |  |  | Ki (VMAT2; [4]): 4800 nM
CC(Cc1ccccc1)N(CCCc1ccc(N)cc1)C(=O)OCc1ccccc1 (stereo not shown) [Compound 291] |  |  | Ki (VMAT2; [4]): 3100 nM
C[C@H](Cc1ccccc1)ONCCc1ccccc1 [Compound 296] | 20000 |  | 
CC(Cc1ccc(F)c(F)c1)NCCCc1ccc(C(N)=O)c(Cl)c1 (stereo not shown) [Compound 297] | 21 |  | Ki (hERG channel; Table 4, mean, minimally n = 3): 5020 nM; CLint scaled at 0.08 µM [1]: < 17 mL/min/kg; Ki [2]: 5820 nM
CC(Cc1ccc(F)cc1)NCCCc1ccc(C(N)=O)cc1 (stereo not shown) [Compound 298] |  |  | Ki (VMAT2; [5]): 16 nM; Ki (hERG channel; Table 4, mean, minimally n = 3): 12400 nM; CLint scaled at 0.08 µM [1]: 18 mL/min/kg; Ki [2]: 3980 nM
CC(Cc1ccc(F)c(F)c1)NCCCc1ccc(C(N)=O)c(F)c1 (stereo not shown) [Compound 299] | 29 |  | Ki (hERG channel; Table 4, mean, minimally n = 3): 12100 nM; CLint scaled at 0.08 µM [1]: 19 mL/min/kg; Ki [2]: 4210 nM
CC(Cc1cc(F)cc(F)c1)NCCCc1ccc(C(N)=O)cc1 (stereo not shown) [Compound 300] |  |  | Ki (VMAT2; [5]): 6 nM; Ki (hERG channel; Table 4, mean, minimally n = 3): 8100 nM; CLint scaled at 0.08 µM [1]: 21 mL/min/kg; Ki [2]: 1570 nM
CC(Cc1cccc(C(N)=O)c1)NCCCc1ccc(F)cc1 (stereo not shown) [Compound 301] |  |  | Ki (VMAT2; [5]): 43 nM; Ki (hERG channel; Table 4, mean, minimally n = 3): 1310 nM; CLint scaled at 0.08 µM [1]: 22 mL/min/kg; Ki [2]: 6070 nM
CC(Cc1ccc(NC(N)=O)cc1)NCCCc1ccc(F)cc1 (stereo not shown) [Compound 302] | 34 |  | Ki (hERG channel; Table 4, mean, minimally n = 3): 7110 nM; CLint scaled at 0.08 µM [1]: 30 mL/min/kg; Ki [2]: 3130 nM
CC(Cc1ccc2[nH]cnc2c1)NCCCc1ccc(F)cc1 (stereo not shown) [Compound 303] | 22 |  | Ki (hERG channel; Table 4, mean, minimally n = 3): 2900 nM; CLint scaled at 0.08 µM [1]: 40 mL/min/kg; Ki [2]: 4770 nM
CC(Cc1ccc(C(N)=O)cc1)NCCCc1ccc(F)cc1 (stereo not shown) [Compound 304] |  |  | Ki (VMAT2; [5]): 31 nM; Ki (hERG channel; Table 4, mean, minimally n = 3): 1610 nM; CLint scaled at 0.08 µM [1]: 41 mL/min/kg; Ki [2]: 5570 nM
CC(Cc1ccc2nccnc2c1)NCCCc1ccc(S(N)(=O)=O)cc1 (stereo not shown) [Compound 305] | 46 |  | Ki (hERG channel; Table 4, mean, minimally n = 3): 4390 nM; CLint scaled at 0.08 µM [1]: 43 mL/min/kg; Ki [2]: 20500 nM
